According to patent publication US12599672B2, “KRAS proteolysis targeting chimeras” (PAQ Therapeutics Inc., priority 2023, dated 2026):

What was measured:
Assay type in all cases: cell-based
KRAS G12D = target: T1, KRAS G12D (Homo sapiens, UniProt P01116, G12D); assay: KRAS G12D HiBit assay; conditions: AsPc-1-KRAS (G12D)-HiBit-KI cell, compound treatment for 24 hours, class symbols; for DC50: absolute DC50
T1 construct: AsPc-1-KRAS (G12D)-HiBit-KI cell (Pharmaron); host or cells: AsPc-1-KRAS (G12D)-HiBit-KI cells (HiBiT knock-in at the endogenous KRAS locus)
Summary of the method: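 Cells were treated for 24 h with compounds in a 3-fold, 10-point dilution series from a 0.3 mM DMSO stock, then equilibrated 15 min at room temperature. KRAS G12D HiBiT levels were read by luminescence after lytic Nano-Glo HiBiT reagent with LgBiT; inhibition calculated relative to 0.1% DMSO high control.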

KRAS G12V = target: T2, KRAS G12V (Homo sapiens, UniProt P01116, G12V); assay: KRAS G12V HiBit assay; conditions: SW620-KRAS (G12V)-HiBit-KI cells, compound treatment for 24 hours, class symbols
T2 construct: SW620-KRAS (G12V)-HiBit-KI cell (Pharmaron); host or cells: SW620-KRAS (G12V)-HiBit-KI cells (HiBiT knock-in at the endogenous KRAS locus)
Summary of the method: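 HiBiT-tagged KRAS G12V cells treated 24 h with compound in a 3-fold, 10-point series (0.3 mM DMSO stock); lytic HiBiT reagent with LgBiT added after 15 min room-temperature equilibration. Degradation calculated against 0.1% DMSO high control.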

KRAS = target: T3, KRAS (Homo sapiens, UniProt P01116); assay: KRASamp MSD assay; conditions: KE39 (KRAS amplified) cells, treated with test compounds for 24 hr, MSD readout of KRAS degradation
T3 construct: endogenous in cells; host or cells: KE39 (KRAS amplified) cells
Summary of the method: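 KRAS-amplified KE39 cells treated with compound for 24 hr, then lysed in RIPA buffer with protease/phosphatase inhibitors. KRAS protein measured by MSD sandwich immunoassay against a recombinant WT KRAS standard curve; DC50 derived from curve fitting of degradation.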

T1 sequence (P01116 1-188 isoform P01116-2 G12D): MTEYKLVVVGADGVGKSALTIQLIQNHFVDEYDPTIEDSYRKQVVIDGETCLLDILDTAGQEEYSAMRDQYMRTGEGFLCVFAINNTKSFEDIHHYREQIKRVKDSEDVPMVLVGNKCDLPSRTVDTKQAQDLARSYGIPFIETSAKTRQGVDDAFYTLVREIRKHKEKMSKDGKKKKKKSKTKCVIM
T2 sequence (P01116 1-188 isoform P01116-2 G12V): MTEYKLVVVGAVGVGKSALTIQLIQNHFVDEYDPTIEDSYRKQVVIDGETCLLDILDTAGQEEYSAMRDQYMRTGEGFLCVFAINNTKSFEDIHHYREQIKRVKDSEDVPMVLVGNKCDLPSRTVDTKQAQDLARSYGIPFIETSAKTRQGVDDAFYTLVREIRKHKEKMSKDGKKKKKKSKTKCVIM
T3 sequence (P01116 1-188 isoform P01116-2): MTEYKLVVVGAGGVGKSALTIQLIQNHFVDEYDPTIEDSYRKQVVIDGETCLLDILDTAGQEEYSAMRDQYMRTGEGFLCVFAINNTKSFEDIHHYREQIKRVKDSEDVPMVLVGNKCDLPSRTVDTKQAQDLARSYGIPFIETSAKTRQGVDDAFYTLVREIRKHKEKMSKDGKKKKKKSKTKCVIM

C#Cc1c(F)ccc2cc(O)cc(-c3ncc4c(N5CCCCCC5)nc(OC[C@@]56CCCN5[C@H](COC(=O)N5CCC(CN7CCC(c8ccc9c(c8)n(C)c(=O)n9C8CCC(=O)NC8=O)CC7)CC5)CC6)nc4c3F)c12 (stereo partly drawn) [Compound 123, ((3S,7aS)-7a-(((4-(Azepan-1-yl)-7-(8-ethynyl-7-fluoro-3-hydroxynaphthalen-1-yl)-8-fluoropyrido[4,3-d]pyrimidin-2-yl)oxy)methyl)hexahydro-1H-pyrrolizin-3-yl)methyl4-((4-(1-(2,6-dioxopiperidin-3-yl)-3-methyl-2-oxo-2,3-dihydro-1H-benzo[d]imidazol-5-yl)piperidin-1-yl)methyl) piperidine-1-carboxylate]
DC50 (KRAS G12D): < 100 nM | Dmax (KRAS G12D): > 50% | DC50 (KRAS G12V): < 10 nM | DC50 (KRAS): < 1 nM

CCc1c(F)ccc2cc(O)cc(-c3ncc4c(N5CCC[C@@](C)(O)C5)nc(OC[C@@]56CCCN5[C@H](COC(=O)N5CCC(CN7CCC(c8cc9c(cc8F)c(C8CCC(=O)NC8=O)nn9C)CC7)CC5)CC6)nc4c3F)c12 (stereo partly drawn) [Compound 102, ((3S,7aS)-7a-(((7-(8-ethyl-7-fluoro-3-hydroxynaphthalen-1-yl)-8-fluoro-4-((R)-3-hydroxy-3-methylpiperidin-1-yl)pyrido[4,3-d]pyrimidin-2-yl)oxy)methyl)hexahydro-1H-pyrrolizin-3-yl)methyl4-((4-(3-(2,6-dioxopiperidin-3-yl)-5-fluoro-1-methyl-1H-indazol-6-yl)piperidin-1-yl)methyl) piperidine-1-carboxylate]
DC50 (KRAS G12D): < 100 nM | Dmax (KRAS G12D): > 50% | DC50 (KRAS G12V): < 10 nM | DC50 (KRAS): < 1 nM

CCc1c(F)ccc2cc(O)cc(-c3ncc4c(N5CCC[C@@](C)(O)C5)nc(OC[C@]56CCCN5[C@@H](COC(=O)N5CCC(CN7CCC(c8cc9c(cc8F)n(C8CCC(=O)NC8=O)c(=O)n9C)CC7)CC5)CC6)nc4c3F)c12 (stereo partly drawn) [Compound 425, ((3R,7aR)-7a-(((7-(8-ethyl-7-fluoro-3-hydroxynaphthalen-1-yl)-8-fluoro-4-((R)-3-hydroxy-3-methylpiperidin-1-yl)pyrido[4,3-d]pyrimidin-2-yl)oxy)methyl)hexahydro-1H-pyrrolizin-3-yl)methyl 4-((4-(1-(2,6-dioxopiperidin-3-yl)-6-fluoro-3-methyl-2-oxo-2,3-dihydro-1H-benzo[d]imidazol-5-yl)piperidin-1-yl)methyl)piperidine-1-carboxylate]
DC50 (KRAS G12D): < 100 nM | DC50 (KRAS G12V): < 10 nM | DC50 (KRAS): < 1 nM

C#Cc1c(F)ccc2cc(O)cc(-c3ncc4c(N5CCC[C@@](C)(O)C5)nc(OC[C@@]56CCCN5[C@H](COC(=O)N5CC7(CCC(CN8CCC(c9ccc%10c(c9)n(C)c(=O)n%10C9CCC(=O)NC9=O)CC8)CC7)C5)CC6)nc4c3F)c12 (stereo partly drawn) [Compound 421, ((3S,7aS)-7a-(((7-(8-ethynyl-7-fluoro-3-hydroxynaphthalen-1-yl)-8-fluoro-4-((R)-3-hydroxy-3-methylpiperidin-1-yl)pyrido[4,3-d]pyrimidin-2-yl)oxy)methyl)hexahydro-1H-pyrrolizin-3-yl)methyl 7-((4-(1-(2,6-dioxopiperidin-3-yl)-3-methyl-2-oxo-2,3-dihydro-1H-benzo[d]imidazol-5-yl)piperidin-1-yl)methyl)-2-azaspiro[3.5]nonane-2-carboxylate]
DC50 (KRAS G12D): < 100 nM | DC50 (KRAS G12V): < 10 nM | DC50 (KRAS): < 1 nM

CCc1c(F)ccc2cc(O)cc(-c3ncc4c(N5CCC[C@@](C)(O)C5)nc(OC[C@]56CCCN5[C@H](COC(=O)N5CCC(COc7ccc8c(c7)n(C)c(=O)n8C7CCC(=O)NC7=O)CC5)CC6)nc4c3F)c12 (stereo partly drawn) [Compound 301, ((3S,7aR)-7a-(((7-(8-ethyl-7-fluoro-3-hydroxynaphthalen-1-yl)-8-fluoro-4-((R)-3-hydroxy-3-methylpiperidin-1-yl)pyrido[4,3-d]pyrimidin-2-yl)oxy)methyl)hexahydro-1H-pyrrolizin-3-yl)methyl 4-(((1-(2,6-dioxopiperidin-3-yl)-3-methyl-2-oxo-2,3-dihydro-1H-benzo[d]imidazol-5-yl)oxy)methyl)piperidine-1-carboxylate]
DC50 (KRAS G12D): < 100 nM | DC50 (KRAS G12V): < 10 nM | DC50 (KRAS): < 1 nM
